Measured values reported in article PMC6151740, “Pharmacokinetics, Tissue Distribution, and Elimination of Three Active Alkaloids in Rats after Oral Administration of the Effective Fraction of Alkaloids from Ramulus Mori, an Innovative Hypoglycemic Agent” (Molecules : A Journal of Synthetic Chemistry and Natural …, 2017).
Several values for one entry are separate records, joined by “and”; a condition that tells them apart may be missing. Equal values may be shown once.

Legend:
[1] = In vitro incubation of SZ–A with rat intestinal homogenate; assay type: in vitro ADME; conditions: SZ–A 10.87 μg/mL, with/without NADPH generation, 37 °C, 120 min
Procedure: (§1) Pooled rat intestinal homogenate from six males was prepared using a tissue homogenizer with ice cold normal saline solution at a proportion of 1:3 (w/v). SZ–A was incubated with rat intestinal homogenate (5 mg protein/mL) with/without a NADPH-generating system (0.011 M β-NADP, 0.1 M glucose 6-phosphate, 10 U/mL glucose-6-phosphate dehydrogenase) in a 37 °C water bath for 120 min. Meanwhile, caecal content was collected and mixed with anaerobic medium (1:30, w/v) to prepare the cultures under nitrogen atmosphere at 37 °C for 120 min. SZ–A and rat caecal microbiota cultures were incubated at a total volume of 200 μL with the boiled samples as the negative control, concomitantly. The incubation was stopped at 2 h by adding two volumes of methanol–acetonitrile (1:3, v/v). Triplicate supernatants were taken by centrifugation at 18,880× g for 5 min and stored at −20 °C until LC-MS/MS analysis. The results were expressed as the percentage of the concentration at 0 min.

[2] = Tissue distribution in rats after oral SZ–A; assay type: in vivo; conditions: Sprague-Dawley, pancreas, rat, SZ–A 40 mg/kg p.o., 0.25, 0.5 and 2 h, n = 3, read-out: tissue to plasma ratio (T/P) in the pancreas
Procedure: Three groups of rats (three rats in each group) were administered with a single oral dose of SZ–A at 40 mg/kg. Rats each were sacrificed and various tissues, including liver, kidney, pancreas, stomach, duodenum, jejunum, ileum, cecum, colon, and the content in the gastrointestinal tract were collected at 0.25, 0.5, and 2 h time points. One additional rat was sacrificed predose to provide control tissues for analysis. After removing blood or content and weighing, each sample was individually homogenized with normal saline solution (1:3, w/v for tissue; 1:9, w/v for content) using a tissue homogenizer (Polytron PT1600E, Kinematica, Luzern, Switzerland) and stored at −20 °C until LC-MS/MS analysis.

[3] = tested on: rat caecal microbiota cultures; assay: In vitro incubation of SZ–A with rat caecal microbiota cultures; assay type: in vitro ADME; conditions: 2 h
Procedure: as §1

[4] = Excretion into urine, feces and bile in rats after oral SZ–A; assay type: in vivo; conditions: rat, SZ–A 40 mg/kg p.o.; for dose excreted: bile, po, within 32 h, read-out: recovery in bile (% of dose); for cumulative excretion into feces (% of dose) / cumulative excretion into urine (% of dose): over a 24 h period, n = 5
Procedure: Five rats were kept in the metabolic cages with free access to water and food 2 h post dose. Urine was collected before dosing and at 0–4, 4–8, 8–24, 24–36, and 36–48 h, and feces was simultaneously collected before dosing and at 0–24, 24–36, and 36–48 h after oral dosing of SZ–A (40 mg/kg). Feces samples were dried and grinded into powder, then homogenized with normal saline solution (1:9, w/v). Additionally, the bile duct of rats under ether anesthesia were cannulated with a PE-10 tube (Portex Ltd., Kent, UK). Bile was collected before dosing and at 0–1, 1–2, 2–4, 4–6, 6–10, 10–20, 20–24, 24–28, and 28–32 h following oral administration of SZ–A (40 mg/kg). All urine, feces, and bile samples were stored at −20 °C until LC-MS/MS analysis.

[5] = 4.35 μg/mL SZ–A (10 μM DNJ, 1.9 μM FGM, 1.6 μM DAB)
[6] = 10.87 μg/mL SZ–A (25 μM DNJ, 4.7 μM FGM, 3.9 μM DAB)

| Compound | amount of alkaloid after incubation in rat intestinal homogenate [1] | Kp [2] | percentage of initial amount after incubation with rat gut microbiota cultures [3, 5] | percentage of initial amount after incubation with rat gut microbiota cultures [3, 6] | dose excreted [4] | cumulative excretion into feces (% of dose) [4] | cumulative excretion into urine (% of dose) [4] | total excretive amount (urine and feces) relative to the oral dose [4] | cumulative excretion into feces (% of dose) ([4]; 40 mg/kg) |
| --- | --- | --- | --- | --- | --- | --- | --- | --- | --- |
| OC[C@H]1NC[C@@H](O)[C@@H]1O [DAB, 1,4-dideoxy-1,4-imino-D-arabinitol] | not changed significantly | 0.09 to 0.59 | 182.2% | 159.3% | 0.35% | 34.05% | 52.91% | – | – |
| OC[C@H]1NC[C@H](O)[C@@H](O)[C@@H]1O [DNJ, 1-deoxynojirimycin] | not changed significantly | 0.06 to 0.47 | 110.6% | 115.5% | 0.29% | 43.97% | 65.32% | – | – |
| OC[C@H]1NCC[C@@H](O)[C@@H]1O [FGM, fagomine] | not changed significantly | 0.18 to 1.13 | 152.8% | 172.0% | 0.5% | – | 65.36% | about two-fold | 131.4% and 131.41% |
